Laboratory results published in ChEMBL document CHEMBL1201862, “PubChem BioAssay data set” (2004).
Values joined by “and” are separate entries in the source; they are usually repeats but may differ in a detail not shown here. Equal entries are not always repeated.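 How tested: cells in 96-well plates exposed to compound for 48 hours at five concentrations. Abbreviation: GI50, concentration required for 50% inhibition of growth.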 Active and inactive are the calls of the source. Cut-off read from the data, not from the text of the source: active = GI50 up to about 1.1 µM and inactive = higher.

Tests used:
Test in all cases: NCI-60 cell line screen, 48 h
[1] = test system: A549
[2] = test system: CAKI-1
[3] = test system: EKVX
[4] = test system: HCT-116
[5] = test system: HCT-15
[6] = test system: HOP-62
[7] = test system: Hs-578T
[8] = test system: IGROV-1
[9] = test system: K562
[10] = test system: LOX IMVI
[11] = test system: Malme-3M
[12] = test system: NCI-H226
[13] = test system: NCI-H23
[14] = test system: NCI-H522
[15] = test system: OVCAR-5
[16] = test system: PC-3
[17] = test system: SN12C
[18] = test system: SNB-19
[19] = test system: BT-549

SMILES	GI50 [1]	GI50 [2]	GI50 [3]	GI50 [4]	GI50 [5]	GI50 [6]	GI50 [7]	GI50 [8]	GI50 [9]	GI50 [10]	GI50 [11]	GI50 [12]	GI50 [13]	GI50 [14]	GI50 [15]	GI50 [16]	GI50 [17]	GI50 [18]	GI50 [19]
CCOC(=O)OC1(c2ccccc2)CCN(C)CC1	> 100 µM (inactive)	> 100 µM (inactive)	> 100 µM (inactive)	> 100 µM (inactive)	> 100 µM	> 100 µM (inactive)	> 100 µM (inactive)	> 100 µM (inactive)	> 100 µM (inactive)	> 100 µM (inactive)	> 100 µM (inactive)	> 100 µM (inactive)	> 100 µM (inactive)	> 100 µM (inactive)	> 100 µM (inactive)	> 100 µM (inactive)	> 100 µM (inactive)	> 100 µM (inactive)	
N#CC1=C(Nc2ccccc2)SC=C(c2ccccc2)N=C1NCc1ccccc1	> 100 µM (inactive)	> 100 µM (inactive)		> 100 µM (inactive)	> 100 µM	> 100 µM (inactive)			24.9 µM (inactive)		> 100 µM (inactive)		> 100 µM (inactive)	53.8 µM (inactive)	> 100 µM (inactive)	> 100 µM (inactive)	> 100 µM (inactive)	> 100 µM (inactive)	
Cn1c2c(c3ccccc31)C1C(=O)N(c3ccccc3)C(=O)C1CC2 (configuration not stated)	> 303 µM (inactive)	> 303 µM (inactive)	> 303 µM (inactive)	294 µM (inactive)	> 303 µM	> 303 µM (inactive)		> 303 µM (inactive)	> 303 µM (inactive)	> 303 µM (inactive)	> 303 µM (inactive)	85.5 µM (inactive)	> 303 µM (inactive)	243 µM (inactive)			> 303 µM (inactive)	111 µM (inactive)	
CC1=CC(=O)/C(=C/NC(=S)c2ccccc2)C(=O)O1	> 100 µM (inactive)	> 100 µM (inactive)	> 100 µM (inactive)	> 100 µM (inactive)	> 100 µM	> 100 µM (inactive)		> 100 µM (inactive)		> 100 µM (inactive)		> 100 µM (inactive)	> 100 µM (inactive)		> 100 µM (inactive)	> 100 µM (inactive)	> 100 µM (inactive)	> 100 µM (inactive)	> 100 µM (inactive)
CCOC(=O)c1c(-c2ccc(Cl)cc2)c(C#N)c(=S)n(C2OC(COC(C)=O)C(OC(C)=O)C(OC(C)=O)C2OC(C)=O)c1-c1ccccc1 (configuration not stated)	> 100 µM (inactive)	> 100 µM (inactive)		> 100 µM (inactive)	> 100 µM	> 100 µM (inactive)	> 100 µM (inactive)	> 100 µM (inactive)	> 100 µM (inactive)	> 100 µM (inactive)	> 100 µM (inactive)		> 100 µM (inactive)		> 100 µM (inactive)	> 100 µM (inactive)	> 100 µM (inactive)	> 100 µM (inactive)	> 100 µM (inactive)
CCOc1ccc(/N=N/c2c(-c3ccccc3)nn(C(=O)CC(=O)Nc3cccc(C)c3)c2-c2ccccc2)cc1	> 100 µM (inactive)	> 100 µM (inactive)	38.1 µM (inactive)	58.5 µM (inactive)		> 100 µM (inactive)		> 100 µM (inactive)	38.8 µM (inactive)	> 100 µM (inactive)	> 100 µM (inactive)	96.4 µM (inactive)	> 100 µM (inactive)	> 100 µM (inactive)	74.1 µM (inactive)		> 100 µM (inactive)	> 100 µM (inactive)	
[N-]=[N+]=CC(=O)OCC1NC(=O)C(COC(=O)C=[N+]=[N-])NC1=O (configuration not stated)	> 100 µM (inactive)	> 100 µM (inactive)	> 100 µM (inactive)	> 100 µM (inactive)	> 100 µM	> 100 µM (inactive)	> 100 µM (inactive)	> 100 µM (inactive)	> 100 µM (inactive)	> 100 µM (inactive)	> 100 µM (inactive)	> 100 µM (inactive)	> 100 µM (inactive)		> 100 µM (inactive)	> 100 µM (inactive)	> 100 µM (inactive)	> 100 µM (inactive) and 72.1 µM (inactive)	
N#C[BH2-][n+]1cn(C2CC(O)C(COP(=O)(O)OC3CC(n4ccc(N)nc4=O)OC3CO)O2)c2nc(N)[nH]c(=O)c21 (configuration not stated)	> 100 µM (inactive)	> 100 µM (inactive)	> 100 µM (inactive)	> 100 µM (inactive)	> 100 µM	> 100 µM (inactive)		> 100 µM (inactive)	10 µM (inactive)		> 100 µM (inactive)	> 100 µM (inactive)	> 100 µM (inactive)	> 100 µM (inactive)	> 100 µM (inactive)	> 100 µM (inactive)	> 100 µM (inactive)	> 100 µM (inactive)	
Cc1ccc(S(=O)(=O)n2ccn3c(=O)cc(C)nc23)cc1	> 10 µM (inactive)	> 10 µM (inactive)	> 10 µM (inactive)	> 10 µM (inactive)	> 10 µM	> 10 µM (inactive)	8.59 µM (inactive)	> 10 µM (inactive)	> 10 µM (inactive)	> 10 µM (inactive)	> 10 µM (inactive)	> 10 µM (inactive)	> 10 µM (inactive)		> 10 µM (inactive)	> 10 µM (inactive)	> 10 µM (inactive)	> 10 µM (inactive)	> 10 µM (inactive)
CN1CCN(CCCBr)CC1	> 100 µM (inactive)		> 100 µM (inactive)	> 100 µM (inactive)	> 100 µM	> 100 µM (inactive)	> 100 µM (inactive)	> 100 µM (inactive)	> 100 µM (inactive)	> 100 µM (inactive)	> 100 µM (inactive)	> 100 µM (inactive)	> 100 µM (inactive)	> 100 µM (inactive)	> 100 µM (inactive)	> 100 µM (inactive)	> 100 µM (inactive)	> 100 µM (inactive)	> 100 µM (inactive)
CSCCC(NC(=O)Cc1ccc(C(=O)c2ccccc2)cc1)C(=O)N1CCN(CCCCN2c3ccccc3Sc3cc(N=[N+]=[N-])ccc32)CC1 (configuration not stated)		> 100 µM (inactive)	> 100 µM (inactive)	65.8 µM (inactive)	> 100 µM	> 100 µM (inactive)		> 100 µM (inactive)	> 100 µM (inactive)	> 100 µM (inactive)	> 100 µM (inactive)	78.2 µM (inactive)	27.9 µM (inactive)	92 µM (inactive)	> 100 µM (inactive)	65.9 µM (inactive)	> 100 µM (inactive)		> 100 µM (inactive)
Cc1ccc(S(=O)(=O)n2c3c(c4ccccc42)CCN2CCC(Br)C[C@@H]32)cc1 (some centres not stated)	16.7 µM (inactive)	11.8 µM (inactive)	19.1 µM (inactive)		12.1 µM	15 µM (inactive)	13.7 µM (inactive)	10.1 µM (inactive)	5.11 µM (inactive)	13.9 µM (inactive)	13.2 µM (inactive)	13.4 µM (inactive)	11.7 µM (inactive)	6.34 µM (inactive)	17.3 µM (inactive)	13.1 µM (inactive)		15.4 µM (inactive)	
Clc1ccc(OCc2nn3c(CCc4nnc5sc(COc6ccc(Cl)cc6)nn45)nnc3s2)cc1		3.35 µM (inactive)	27.7 µM (inactive)	21.9 µM (inactive)	18.2 µM	23.7 µM (inactive)	3.94 µM (inactive)	16.8 µM (inactive)	9.4 µM (inactive)	37.2 µM (inactive)		30.3 µM (inactive)	15.3 µM (inactive)	5.62 µM (inactive)	53.7 µM (inactive)	15.6 µM (inactive)			
O=C(/C=C/c1ccccc1)Oc1cccc(Br)c1	69.8 µM (inactive)	48.6 µM (inactive)	48.3 µM (inactive)	25.6 µM (inactive)	18.2 µM	> 100 µM (inactive)	16.6 µM (inactive)	17.7 µM (inactive)		29.7 µM (inactive)		> 100 µM (inactive)	> 100 µM (inactive)	5.68 µM (inactive)	> 100 µM (inactive)	93.1 µM (inactive)	> 100 µM (inactive)	31.7 µM (inactive)	> 100 µM (inactive)
O=C1Nc2ccccc2/C1=N/Nc1ncccc1[N+](=O)[O-]	18 µM (inactive)		5.08 µM (inactive)	4.92 µM (inactive)	4.72 µM	12.9 µM (inactive)	31.6 µM (inactive)	2.09 µM (inactive)	3.95 µM (inactive)	7.55 µM (inactive)	17.3 µM (inactive)	13.6 µM (inactive)		9.71 µM (inactive)	12.6 µM (inactive)	12.4 µM (inactive)	17.3 µM (inactive)	19.9 µM (inactive)	11.5 µM (inactive)
COc1nc(-c2c[nH]c3ccccc23)cnc1N	31.2 µM (inactive)	24.6 µM (inactive)	6.35 µM (inactive)	21.7 µM (inactive)	22.8 µM	48.9 µM (inactive)	17.7 µM (inactive)	19.6 µM (inactive)	33.6 µM (inactive)	25.3 µM (inactive)					14.4 µM (inactive)	26.5 µM (inactive)	5.87 µM (inactive)	66.4 µM (inactive)	33.7 µM (inactive)
Nc1ccccc1/C=C\c1ccccc1	> 100 µM (inactive)		> 100 µM (inactive)	> 100 µM (inactive)	> 100 µM	> 100 µM (inactive)	> 100 µM (inactive)	> 100 µM (inactive)	> 100 µM (inactive)		> 100 µM (inactive)	> 100 µM (inactive)	> 100 µM (inactive)		> 100 µM (inactive)	> 100 µM (inactive)	> 100 µM (inactive)	> 100 µM (inactive)	> 100 µM (inactive)
